Test results published in US11850247B2, “Antiviral compounds” (REGENTS OF THE UNIVERSITY OF MINNESOTA, priority 2020, dated 2023).

Assays:
HIV-1 = assay: Anti-HIV-1 activity in TZM-GFP cells (viral LTR-activated GFP expression); format: cell-based; conditions: for EC50: Human immunodeficiency virus 1, HIV-1 strain MOI=1, GFP positive cells counted after 48 hours; for inhibition at 2 µM: Human immunodeficiency virus 1, 2 μM compound; for inhibition at 2 µM / inhibition at 20 µM: HIV-1 MOI=1; for inhibition at 20 µM: Human immunodeficiency virus 1, 20 μM compound
Experimental: The potency of HIV-1 inhibition by a compound was based on its inhibitory effect on viral LTR-activated GFP expression compared with that of compound-free (DMSO) controls. Briefly, TZM-GFP cells were plated at density of 1×10^4 cells per well in a 96-well plate. 24 hours later, media was replaced with increasing concentrations of compound. 24 hours post treatment, cells were exposed to an HIV-1 strain (MOI=1).
(§1) The cytotoxicity of each compound was also determined in TZM-GFP cells. Cells were plated at a density of 1×10^4 cells per well in a 96-well plate and were continuously exposed to increasing concentrations of a compound for 72 hours. The number of viable cells in each well was determined using a Cell Proliferation Kit II (XTT), and 50% cytotoxicity concentration (CC50) values were determined. All the cell-based assays were conducted in duplicate and in at least two independent experiments. For the EC50 and CC50 dose responses, values were plotted in GraphPad Prism 5 and analyzed with the log (inhibitor) vs. normalized response-variable slope equation. Final values were calculated in each independent assay and the average values were determined. Statistical analysis (calculation of standard deviation) was performed by using Microsoft Excel.

[1] = Cytotoxicity in TZM-GFP cells (XTT); format: cell-based; conditions: human, 72 hours exposure, XTT
Experimental: as §1

[2] = target: covalently-crosslinked hexameric CA A14C/E45C/W184A/M185A (CA121) (Human immunodeficiency virus type 1 group M subtype B, UniProt P12493, A146C/E177C/M317A/W316A); assay: Thermal shift assay (TSA), CA hexamer stability; format: binding, HIV-1; conditions: compound 20 μM, ΔTm=Tm−T0 vs DMSO

| SMILES | EC50 (HIV-1) | CC50 at 72 h [1] | TSA ΔTm (° C.) [2] | inhibition at 2 µM (HIV-1) | inhibition at 20 µM (HIV-1) |
| --- | --- | --- | --- | --- | --- |
| CN(C(=O)[C@H](Cc1ccccc1)NC(=O)Cc1cccc2ccccc12)c1ccc(Cl)cc1 [Example 18, (S)—N-(4-chlorophenyl)-N-methyl-2-(2-(naphthalen-1-yl)acetamido)-3-phenylpropanamide] | 0.83 ± 0.03 µM | < 50 µM | 7.2 °C | – | – |
| CN(C(=O)[C@H](Cc1ccccc1)NC(=O)Cc1cccc2ccccc12)c1cccc(Cl)c1 [Example 19, (S)—N-(3-chlorophenyl)-N-methyl-2-(2-(naphthalen-1-yl)acetamido)-3-phenylpropanamide] | – | < 50 µM | 4.4 °C | 53% | 96% |
| CN(C(=O)[C@H](Cc1ccccc1)NC(=O)Cc1cccc2ccccc12)c1cccc(F)c1 [Example 20, (S)—N-(3-fluorophenyl)-N-methyl-2-(2-(naphthalen-1-yl)acetamido)-3-phenylpropanamide] | – | < 50 µM | 5.4 °C | 44% | 97% |
| CCN(C(=O)[C@H](Cc1ccccc1)NC(=O)Cc1cccc2ccccc12)c1ccccc1 [Example 21, (S)—N-ethyl-2-(2-(naphthalen-1-yl)acetamido)-N,3-diphenylpropanamide] | 1.8 ± 0.09 µM | < 50 µM | 4.9 °C | – | – |
| CN(C(=O)[C@H](Cc1ccccc1)NC(=O)CN1C(=O)NC2(CCCCC2)C1=O)c1ccccc1 [Example 22, 2-(2-(2,4-dioxo-1,3-diazaspiro[4.5]decan-3-yl)acetamido)-N-methyl-N,3-diphenylpropanamide] | 8.9 ± 1.5 µM | > 100 µM | 1.3 °C | – | – |
| COc1ccc(N(C)C(=O)[C@H](Cc2ccccc2)NC(=O)CN2C(=O)NC3(CCCCC3)C2=O)cc1 [Example 23, 2-(2-(2,4-dioxo-1,3-diazaspiro[4.5]decan-3-yl)acetamido)-N-(4-methoxyphenyl)-N-methyl-3-phenylpropanamide] | 5.1 ± 2 µM | > 100 µM | 1.8 °C | – | – |
| Cc1ccc(N(C)C(=O)[C@H](Cc2ccccc2)NC(=O)CN2C(=O)NC3(CCCCC3)C2=O)cc1 [Example 24, 2-(2-(2,4-dioxo-1,3-diazaspiro[4.5]decan-3-yl)acetamido)-N-methyl-3-phenyl-N-(p-tolyl)propenamide] | 1.9 ± 0.5 µM | > 100 µM | 2.7 °C | – | – |
| CN(C(=O)[C@H](Cc1ccccc1)NC(=O)CN1C(=O)NC2(CCCCC2)C1=O)c1ccc(F)cc1 [Example 25, 2-(2-(2,4-dioxo-1,3-diazaspiro[4.5]decan-3-yl)acetamido)-N-(4-fluorophenyl)-N-methyl-3-phenylpropanamide] | – | > 50 µM | 3.1 °C | 9% | 99% |
| CN(C(=O)[C@H](Cc1ccccc1)NC(=O)CN1C(=O)NC2(CCCCC2)C1=O)c1cccc(F)c1 [Example 26, 2-(2-(2,4-dioxo-1,3-diazaspiro[4.5]decan-3-yl)acetamido)-N-(3-fluorophenyl)-N-methyl-3-phenylpropanamide] | – | > 50 µM | 1.3 °C | 24% | 98% |
| CN(C(=O)[C@H](Cc1ccccc1)NC(=O)CN1C(=O)NC2(CCCCC2)C1=O)c1ccc(Cl)cc1 [Example 27, N-(4-chlorophenyl)-2-(2-(2,4-dioxo-1,3-diazaspiro[4.5]decan-3-yl)acetamido)-N-methyl-3-phenylpropanamide] | 2.5 ± 0.5 µM | > 100 µM | 2.2 °C | – | – |
| CN(C(=O)[C@H](Cc1ccccc1)NC(=O)CN1C(=O)NC2(CCCCC2)C1=O)c1cccc(Cl)c1 [Example 28, N-(3-chlorophenyl)-2-(2-(2,4-dioxo-1,3-diazaspiro[4.5]decan-3-yl)acetamido)-N-methyl-3-phenylpropanamide] | – | < 50 µM | 3.3 °C | 9% | 98% |
| CN(C(=O)[C@H](Cc1ccccc1)NC(=O)CN1C(=O)NC2(CCCCC2)C1=O)c1cccc(Br)c1 [Example 29, N-(3-bromophenyl)-2-(2-(2,4-dioxo-1,3-diazaspiro[4.5]decan-3-yl)acetamido)-N-methyl-3-phenylpropanamide] | > 20 µM | > 50 µM | 1.5 °C | – | – |
| CCN(C(=O)[C@H](Cc1ccccc1)NC(=O)CN1C(=O)NC2(CCCCC2)C1=O)c1ccccc1 [Example 30, 2-(2-(2,4-dioxo-1,3-diazaspiro[4.5]decan-3-yl)acetamido)-N-ethyl-N,3-diphenylpropanamide] | 7.6 ± 0.9 µM | > 100 µM | 2.0 °C | – | – |
| CN(C(=O)[C@H](Cc1ccccc1)NC(=O)Cn1c(=O)[nH]c2ccccc2c1=O)c1ccccc1 [Example 31, (S)-2-(2-(2,4-dioxo-1,4-dihydroquinazolin-3(2H)-yl)acetamido)-N-methyl-N,3-diphenylpropanamide] | 6.9 ± 0.8 µM | > 100 µM | 2.7 °C | – | – |
| CN(C(=O)[C@H](Cc1ccccc1)NC(=O)Cn1c(=O)[nH]c2ccccc2c1=O)c1ccc(F)cc1 [Example 32, (S)-2-(2-(2,4-dioxo-1,4-dihydroquinazolin-3(2H)-yl)acetamido)-N-(4-fluorophenyl)-N-methyl-3-phenylpropanamide] | 8 ± 1.3 µM | > 100 µM | 2.4 °C | – | – |
| CN(C(=O)[C@H](Cc1ccccc1)NC(=O)CNC(=O)c1ccccc1)c1ccccc1 [Example 34, (S)—N-(2-((1-(methyl(phenyl)amino)-1-oxo-3-phenylpropan-2-yl)amino)-2-oxoethyl)benzamide] | – | > 50 µM | 1.3 °C | 15% | 96% |
| Cc1ccc(N(C)C(=O)[C@H](Cc2ccccc2)NC(=O)CNC(=O)c2ccccc2)cc1 [Example 35, (S)—N-(2-((1-(methyl(p-tolyl)amino)-1-oxo-3-phenylpropan-2-yl)amino)-2-oxoethyl)benzamide] | 1.6 ± 0.02 µM | > 50 µM | 5.0 °C | – | – |
| CN(C(=O)[C@H](Cc1ccccc1)NC(=O)CNC(=O)c1ccccc1)c1ccc(Cl)cc1 [Example 36, (S)—N-(2-((1-((4-chlorophenyl)(methyl)amino)-1-oxo-3-phenylpropan-2-yl)amino)-2-oxoethyl)benzamide] | 0.88 ± 0.02 µM | > 50 µM | 4.1 °C | – | – |
| CN(C(=O)[C@H](Cc1ccccc1)NC(=O)CNC(=O)c1ccccc1)c1cccc(Cl)c1 [Example 37, (S)—N-(2-((1-((3-chlorophenyl)(methyl)amino)-1-oxo-3-phenylpropan-2-yl)amino)-2-oxoethyl)benzamide] | – | > 50 µM | 2.0 °C | 40% | 95% |
| CN(C(=O)[C@H](Cc1ccccc1)NC(=O)CNC(=O)c1ccccc1)c1ccc(F)cc1 [Example 38, (S)—N-(2-((1-((4-fluorophenyl)(methyl)amino)-1-oxo-3-phenylpropan-2-yl)amino)-2-oxoethyl)benzamide] | – | > 50 µM | 2.2 °C | 12% | 97% |
| CN(C(=O)[C@H](Cc1ccccc1)NC(=O)CNC(=O)c1ccccc1)c1cccc(F)c1 [Example 39, (S)—N-(2-((1-((3-fluorophenyl)(methyl)amino)-1-oxo-3-phenylpropan-2-yl)amino)-2-oxoethyl)benzamide] | – | > 50 µM | 0 °C | 3% | 94% |
| CN(C(=O)[C@H](Cc1ccccc1)NC(=O)CNC(=O)c1ccccc1)c1cccc(Br)c1 [Example 40, (S)—N-(2-((1-((3-bromophenyl)(methyl)amino)-1-oxo-3-phenylpropan-2-yl)amino)-2-oxoethyl)benzamide] | – | > 50 µM | 2.2 °C | 38% | 97% |
| CCN(C(=O)[C@H](Cc1ccccc1)NC(=O)CNC(=O)c1ccccc1)c1ccccc1 [Example 41, (S)—N-(2-((1-(ethyl(phenyl)amino)-1-oxo-3-phenylpropan-2-yl)amino)-2-oxoethyl)benzamide] | 2.5 ± 0.03 µM | > 50 µM | −2.5 °C | – | – |
| Cc1cn(CC(=O)N[C@@H](Cc2ccccc2)C(=O)N(C)c2ccccc2)c(=O)[nH]c1=O [Example 42, (S)—N-methyl-2-(2-(5-methyl-2,4-dioxo-3,4-dihydropyrimidin-1(2H)-yl)acetamido)-N,3-diphenylpropanamide] | – | > 50 µM | 0.5 °C | 35% | 95% |
| Cc1ccc(N(C)C(=O)[C@H](Cc2ccccc2)NC(=O)Cn2cc(C)c(=O)[nH]c2=O)cc1 [Example 43, (S)—N-methyl-2-(2-(5-methyl-2,4-dioxo-3,4-dihydropyrimidin-1(2H)-yl)acetamido)-3-phenyl-N-(p-tolyl)propenamide] | – | > 50 µM | 0.6 °C | 7% | 85% |
